Assay in all cases: biochemical
Holding throughout (design): Eurofins KinaseProfiler full panel at Km ATP, residual kinase activity (%) relative to DMSO

The target in one assay is Flt4(h) (Homo sapiens, UniProt P35916). A digest of the protocol: (§1)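 Two 10 µM single-concentration screens were run: a competition-binding screen, in which DNA-tagged kinase bound to immobilized ligands was quantified by qPCR, and a radiometric activity panel at Km ATP. Each is expressed as residual kinase activity (%).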
Flt4(h), sequence (P35916 whole entry): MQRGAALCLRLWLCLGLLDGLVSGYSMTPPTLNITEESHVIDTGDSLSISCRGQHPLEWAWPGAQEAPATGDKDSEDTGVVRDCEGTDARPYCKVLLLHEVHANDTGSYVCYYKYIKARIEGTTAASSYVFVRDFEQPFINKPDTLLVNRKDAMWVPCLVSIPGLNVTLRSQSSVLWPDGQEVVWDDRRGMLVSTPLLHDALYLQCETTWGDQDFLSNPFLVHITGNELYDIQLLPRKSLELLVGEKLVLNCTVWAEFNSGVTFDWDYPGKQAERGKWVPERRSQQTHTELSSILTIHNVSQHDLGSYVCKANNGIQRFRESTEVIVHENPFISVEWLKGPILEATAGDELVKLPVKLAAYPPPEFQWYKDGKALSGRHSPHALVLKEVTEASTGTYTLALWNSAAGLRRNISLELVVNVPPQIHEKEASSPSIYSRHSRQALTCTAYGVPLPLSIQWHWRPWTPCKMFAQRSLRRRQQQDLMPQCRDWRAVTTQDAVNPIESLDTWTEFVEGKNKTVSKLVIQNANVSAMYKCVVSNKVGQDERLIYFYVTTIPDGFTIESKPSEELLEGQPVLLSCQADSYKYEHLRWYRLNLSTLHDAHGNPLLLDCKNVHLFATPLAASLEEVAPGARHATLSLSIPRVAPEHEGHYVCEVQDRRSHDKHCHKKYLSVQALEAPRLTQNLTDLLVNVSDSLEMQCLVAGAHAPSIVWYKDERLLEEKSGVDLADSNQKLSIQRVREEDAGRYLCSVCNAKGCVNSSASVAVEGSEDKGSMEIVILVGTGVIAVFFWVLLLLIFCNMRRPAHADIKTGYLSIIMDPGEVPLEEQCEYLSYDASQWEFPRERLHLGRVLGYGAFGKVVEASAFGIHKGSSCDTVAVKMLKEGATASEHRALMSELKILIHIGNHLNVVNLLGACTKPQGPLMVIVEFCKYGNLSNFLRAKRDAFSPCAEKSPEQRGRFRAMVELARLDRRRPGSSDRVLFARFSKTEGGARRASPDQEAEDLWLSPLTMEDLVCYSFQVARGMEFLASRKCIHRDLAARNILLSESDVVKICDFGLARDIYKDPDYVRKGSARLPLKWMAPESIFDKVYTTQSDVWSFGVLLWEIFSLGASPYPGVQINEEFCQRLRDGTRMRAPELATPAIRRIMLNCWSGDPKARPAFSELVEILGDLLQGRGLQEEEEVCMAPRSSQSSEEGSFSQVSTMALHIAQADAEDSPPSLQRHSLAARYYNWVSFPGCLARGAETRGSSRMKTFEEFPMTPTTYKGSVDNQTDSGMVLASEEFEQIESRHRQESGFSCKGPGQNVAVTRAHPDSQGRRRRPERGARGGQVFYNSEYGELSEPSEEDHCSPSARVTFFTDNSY
The next assay addresses T1, Abl(m) (Mus musculus, UniProt P00520).
T1 construct: gene Abl1
A digest of the protocol:
as §1

A further assay concerns the target PASK(h) (Homo sapiens, UniProt Q96RG2). A digest of the protocol: as §1
The target in a further assay is T2, PIP4K2a(h) (Homo sapiens, UniProt P48426).
T2 sequence (P48426 1-406): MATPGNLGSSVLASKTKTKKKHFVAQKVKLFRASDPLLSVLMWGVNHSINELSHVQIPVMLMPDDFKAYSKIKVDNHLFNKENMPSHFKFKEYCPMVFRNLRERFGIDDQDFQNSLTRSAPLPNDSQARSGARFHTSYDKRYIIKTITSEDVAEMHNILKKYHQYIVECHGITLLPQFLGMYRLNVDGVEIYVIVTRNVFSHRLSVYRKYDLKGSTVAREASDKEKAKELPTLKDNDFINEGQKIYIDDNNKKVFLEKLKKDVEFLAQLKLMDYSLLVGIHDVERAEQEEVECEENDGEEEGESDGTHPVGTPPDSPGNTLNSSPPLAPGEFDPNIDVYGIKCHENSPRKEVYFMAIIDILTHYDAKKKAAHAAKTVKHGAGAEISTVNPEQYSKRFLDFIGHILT
The essentials: as §1

The next assay addresses T3, PAR-1Bα(h) (Homo sapiens, UniProt Q7KZI7).
T3 construct: gene MARK2
The essentials: as §1

For a further assay, the target named is T4, PRK2(h) (Homo sapiens, UniProt Q16513).
T4 construct: gene PKN2
T4 sequence (Q16513 whole entry): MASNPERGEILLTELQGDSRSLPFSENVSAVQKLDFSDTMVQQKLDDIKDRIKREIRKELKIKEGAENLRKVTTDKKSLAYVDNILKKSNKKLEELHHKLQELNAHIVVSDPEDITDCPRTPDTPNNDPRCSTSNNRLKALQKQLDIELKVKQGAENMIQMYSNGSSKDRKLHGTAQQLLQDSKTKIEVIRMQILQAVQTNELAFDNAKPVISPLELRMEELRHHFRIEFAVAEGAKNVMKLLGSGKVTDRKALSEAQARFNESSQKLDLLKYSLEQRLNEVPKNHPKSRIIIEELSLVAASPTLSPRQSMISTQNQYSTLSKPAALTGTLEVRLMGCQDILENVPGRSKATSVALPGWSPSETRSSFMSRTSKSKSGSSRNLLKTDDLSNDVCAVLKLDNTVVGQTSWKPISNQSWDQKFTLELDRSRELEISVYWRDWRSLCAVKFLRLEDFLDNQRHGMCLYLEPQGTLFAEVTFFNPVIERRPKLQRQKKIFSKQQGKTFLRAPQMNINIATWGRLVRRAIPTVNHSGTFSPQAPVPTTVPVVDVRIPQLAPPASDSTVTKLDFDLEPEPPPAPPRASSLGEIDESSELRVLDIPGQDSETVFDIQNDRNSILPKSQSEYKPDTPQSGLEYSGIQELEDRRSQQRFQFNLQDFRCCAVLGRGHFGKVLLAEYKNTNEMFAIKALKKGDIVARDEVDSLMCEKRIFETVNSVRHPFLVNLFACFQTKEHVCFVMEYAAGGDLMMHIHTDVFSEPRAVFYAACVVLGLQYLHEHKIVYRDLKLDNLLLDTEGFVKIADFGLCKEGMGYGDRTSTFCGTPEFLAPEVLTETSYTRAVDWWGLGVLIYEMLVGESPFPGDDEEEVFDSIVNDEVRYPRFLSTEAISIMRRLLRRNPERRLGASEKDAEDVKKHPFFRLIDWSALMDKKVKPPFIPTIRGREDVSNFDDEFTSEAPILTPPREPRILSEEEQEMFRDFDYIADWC
The essentials:
as §1

The next assay concerns the target Hck(h) activated (Homo sapiens, UniProt P08631). A digest of the protocol:
as §1

The next assay addresses CDK17/cyclinY(h) (Homo sapiens, UniProt Q00537). The essentials:
as §1

For the next assay, the target named is T5, RIPK1(h) (Homo sapiens, UniProt Q13546).
T5 sequence (Q13546 1-671): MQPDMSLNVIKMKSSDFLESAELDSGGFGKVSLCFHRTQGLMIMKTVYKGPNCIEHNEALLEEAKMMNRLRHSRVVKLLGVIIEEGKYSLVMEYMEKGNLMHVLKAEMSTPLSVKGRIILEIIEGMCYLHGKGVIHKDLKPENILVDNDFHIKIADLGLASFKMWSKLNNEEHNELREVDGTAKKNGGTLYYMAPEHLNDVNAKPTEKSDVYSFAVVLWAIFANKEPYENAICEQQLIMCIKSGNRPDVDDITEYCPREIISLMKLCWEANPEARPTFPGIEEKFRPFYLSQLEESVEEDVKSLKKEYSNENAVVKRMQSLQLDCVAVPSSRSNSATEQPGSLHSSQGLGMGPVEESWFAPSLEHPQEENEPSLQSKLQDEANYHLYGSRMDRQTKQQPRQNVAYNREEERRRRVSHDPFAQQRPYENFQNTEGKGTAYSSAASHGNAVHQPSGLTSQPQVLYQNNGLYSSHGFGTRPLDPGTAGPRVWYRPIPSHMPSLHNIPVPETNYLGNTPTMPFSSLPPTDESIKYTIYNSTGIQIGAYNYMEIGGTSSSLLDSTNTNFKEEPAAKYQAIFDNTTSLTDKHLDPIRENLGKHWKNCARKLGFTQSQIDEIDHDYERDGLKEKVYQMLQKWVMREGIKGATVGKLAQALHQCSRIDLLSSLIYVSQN
A digest of the protocol:
as §1

For the next assay, the target named is T6, JNK2α2(h) (Homo sapiens, UniProt P45984).
T6 construct: gene MAPK9; isoform alpha2
The essentials: as §1

The target of the next assay is CDK6/cyclinD3(h) (Homo sapiens, UniProt Q00534). A digest of the protocol: as §1
Setting [1] is: read-out: Residual activity (%) 5at.
[2] abbreviates: read-out: Residual activity (%) 5ay.
The mark [3] stands for this setting: read-out: Residual activity (%) 5as.
Setting [4] is: read-out: Residual activity (%) Spautin-1 5aa.

Structures are written as SMILES. Where two headings read alike, the source gives them in different places.

Hck(h) activated, sequence (P08631 whole entry): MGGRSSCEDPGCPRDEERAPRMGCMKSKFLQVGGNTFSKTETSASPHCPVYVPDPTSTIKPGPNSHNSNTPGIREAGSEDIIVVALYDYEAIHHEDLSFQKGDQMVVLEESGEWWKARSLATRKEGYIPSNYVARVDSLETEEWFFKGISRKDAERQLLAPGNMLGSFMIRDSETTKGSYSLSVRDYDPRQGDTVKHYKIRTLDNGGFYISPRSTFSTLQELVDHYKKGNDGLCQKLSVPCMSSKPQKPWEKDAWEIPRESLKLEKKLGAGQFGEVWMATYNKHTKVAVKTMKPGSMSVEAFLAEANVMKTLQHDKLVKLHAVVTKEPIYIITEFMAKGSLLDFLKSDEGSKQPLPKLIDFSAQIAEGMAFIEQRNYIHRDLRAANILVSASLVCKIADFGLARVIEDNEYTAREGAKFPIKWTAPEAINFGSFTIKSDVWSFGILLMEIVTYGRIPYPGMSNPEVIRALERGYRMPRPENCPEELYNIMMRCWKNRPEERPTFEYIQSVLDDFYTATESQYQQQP
CDK17/cyclinY(h), sequence (Q00537 whole entry): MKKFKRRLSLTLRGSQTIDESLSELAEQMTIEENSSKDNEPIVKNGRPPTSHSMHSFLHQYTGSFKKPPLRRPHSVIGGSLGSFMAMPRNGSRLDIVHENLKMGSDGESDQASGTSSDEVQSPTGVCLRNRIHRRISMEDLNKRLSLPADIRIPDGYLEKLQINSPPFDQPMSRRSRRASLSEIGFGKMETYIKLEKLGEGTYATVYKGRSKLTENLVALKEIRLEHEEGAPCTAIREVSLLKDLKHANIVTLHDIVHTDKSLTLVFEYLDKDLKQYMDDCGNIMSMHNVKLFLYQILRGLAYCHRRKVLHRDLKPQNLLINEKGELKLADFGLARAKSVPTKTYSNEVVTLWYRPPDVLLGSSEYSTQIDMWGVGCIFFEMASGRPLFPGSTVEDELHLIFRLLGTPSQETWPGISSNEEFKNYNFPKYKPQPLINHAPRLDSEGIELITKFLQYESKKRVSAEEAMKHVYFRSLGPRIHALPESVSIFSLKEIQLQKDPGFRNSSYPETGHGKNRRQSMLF
CDK17/cyclinY(h), sequence (Q8ND76 whole entry partner): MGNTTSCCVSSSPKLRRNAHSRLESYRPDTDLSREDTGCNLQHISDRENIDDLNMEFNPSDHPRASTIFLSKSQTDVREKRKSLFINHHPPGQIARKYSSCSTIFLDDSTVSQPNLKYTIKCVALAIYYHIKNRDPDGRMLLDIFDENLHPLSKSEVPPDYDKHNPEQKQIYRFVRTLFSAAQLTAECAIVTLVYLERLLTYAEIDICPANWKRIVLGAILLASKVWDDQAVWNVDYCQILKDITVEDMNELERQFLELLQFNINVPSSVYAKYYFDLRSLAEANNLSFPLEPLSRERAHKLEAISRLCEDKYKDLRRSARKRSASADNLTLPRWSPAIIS
T1 sequence (P00520 whole entry): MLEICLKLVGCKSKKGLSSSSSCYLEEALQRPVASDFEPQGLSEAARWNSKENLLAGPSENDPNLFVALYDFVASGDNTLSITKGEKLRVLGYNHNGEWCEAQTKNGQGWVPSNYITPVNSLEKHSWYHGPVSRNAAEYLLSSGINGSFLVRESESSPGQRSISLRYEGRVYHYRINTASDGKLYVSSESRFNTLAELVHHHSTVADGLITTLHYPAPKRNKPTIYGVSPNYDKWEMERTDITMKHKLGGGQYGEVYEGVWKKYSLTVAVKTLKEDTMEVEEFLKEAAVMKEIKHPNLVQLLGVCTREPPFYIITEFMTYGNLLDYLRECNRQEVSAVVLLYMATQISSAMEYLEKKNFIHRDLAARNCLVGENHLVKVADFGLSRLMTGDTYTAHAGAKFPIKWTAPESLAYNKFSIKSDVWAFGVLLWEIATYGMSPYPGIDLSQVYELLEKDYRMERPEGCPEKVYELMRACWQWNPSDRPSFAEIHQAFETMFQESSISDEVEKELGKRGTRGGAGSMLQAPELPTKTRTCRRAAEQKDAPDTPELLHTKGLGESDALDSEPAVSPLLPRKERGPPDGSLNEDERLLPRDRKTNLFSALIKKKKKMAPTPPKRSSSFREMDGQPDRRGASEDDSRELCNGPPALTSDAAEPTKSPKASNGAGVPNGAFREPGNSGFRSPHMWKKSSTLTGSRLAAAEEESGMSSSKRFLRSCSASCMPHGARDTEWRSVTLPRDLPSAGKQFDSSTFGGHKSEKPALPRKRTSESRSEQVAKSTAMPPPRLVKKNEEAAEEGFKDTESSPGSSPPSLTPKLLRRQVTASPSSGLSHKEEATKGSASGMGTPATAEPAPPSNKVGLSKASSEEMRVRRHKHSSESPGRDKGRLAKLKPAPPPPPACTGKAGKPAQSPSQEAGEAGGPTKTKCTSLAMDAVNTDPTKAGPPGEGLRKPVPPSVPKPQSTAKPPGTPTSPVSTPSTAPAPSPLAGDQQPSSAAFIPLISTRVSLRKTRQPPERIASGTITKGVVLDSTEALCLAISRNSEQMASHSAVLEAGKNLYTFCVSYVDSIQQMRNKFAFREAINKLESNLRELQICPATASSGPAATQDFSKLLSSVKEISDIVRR

In the case of `Fc1ccc2ncnc(NCCc3ccc(Cl)cc3)c2c1` [5at, N-[2-(4-Chlorophenyl)Ethyl]-6-Fluoro-4-Quinazolinamine], the remaining activity at 10 µM at Flt4(h) (setting [1]) is 90%; on Abl(m) (setting [1]), 99%; at PASK(h) (setting [1]), 30%; at PIP4K2a(h) (setting [1]), 92%; at PAR-1Bα(h) (setting [1]), 101%; on PRK2(h) (setting [1]), 96%. Moreover, the remaining activity at 10 µM amounted to 108% at Hck(h) activated (setting [1]); 88% at CDK17/cyclinY(h) (setting [1]); 80% at RIPK1(h) (setting [1]); 88% at JNK2α2(h) (setting [1]); 98% on CDK6/cyclinD3(h) (setting [1]).

Take `COc1ccc2ncnc(Nc3cccc(F)c3)c2c1` [5ay, N-(3-Fluorophenyl)-6-Methoxy-4-Quinazolinamine]: the remaining activity at 10 µM is 66% at Flt4(h) (setting [2]); 56% at Abl(m) (setting [2]); 65% on PASK(h) (setting [2]); 102% on PIP4K2a(h) (setting [2]); 83% at PAR-1Bα(h) (setting [2]); 95% at PRK2(h) (setting [2]). In addition, the remaining activity at 10 µM was found to be 46% at Hck(h) activated (setting [2]); 74% at CDK17/cyclinY(h) (setting [2]); 78% at RIPK1(h) (setting [2]); 82% on JNK2α2(h) (setting [2]); 87% on CDK6/cyclinD3(h) (setting [2]).

With `Fc1ccc(CCNc2ncnc3ccc(F)cc23)cc1` [5as, 6-Fluoro-N-[2-(4-Fluorophenyl)Ethyl]-4-Quinazolinamine], the remaining activity at 10 µM was determined as 81% at Flt4(h) (setting [3]); 83% on Abl(m) (setting [3]); 44% on PASK(h) (setting [3]); 96% at PIP4K2a(h) (setting [3]); 86% at PAR-1Bα(h) (setting [3]); 104% on PRK2(h) (setting [3]). The remaining activity at 10 µM is 85% on Hck(h) activated (setting [3]); 80% at CDK17/cyclinY(h) (setting [3]); 73% at RIPK1(h) (setting [3]); 78% at JNK2α2(h) (setting [3]); 96% on CDK6/cyclinD3(h) (setting [3]).

Turning to `Fc1ccc(CNc2ncnc3ccc(F)cc23)cc1` [5aa, 6-Fluoro-N-(4-fluorobenzyl)-4-Quinazolinamine], the remaining activity at 10 µM at Flt4(h) (setting [4]) worked out at 92%; on Abl(m) (setting [4]), 90%; at PASK(h) (setting [4]), 66%; on PIP4K2a(h) (setting [4]), 93%; on PAR-1Bα(h) (setting [4]) it was 84%; at PRK2(h) (setting [4]), 108%. Further, the remaining activity at 10 µM on Hck(h) activated (setting [4]) was found to be 85%; on CDK17/cyclinY(h) (setting [4]) it was 82%; at RIPK1(h) (setting [4]) it was 86%; at JNK2α2(h) (setting [4]) it was 89%; at CDK6/cyclinD3(h) (setting [4]) it was 102%.

These data come from PMC7827406, “Structure–Activity Relationship (SAR) Study of Spautin-1 to Entail the Discovery of Novel NEK4 Inhibitors” (International Journal of Molecular Sciences, 2021).
